{
  "source": "patent US5352608A",
  "about": "(priority 1992, dated 1994)",
  "key": {"[1]": {"tested_on": "R. sphaeroides 2.4.1", "test": "Isolation of tellurium from membrane fractions (Te^IV to Te^o conversion)", "assay_type": "cell-based, Rhodobacter sphaeroides", "procedure": "Two one-liter cultures of R. sphaeroides 2.4.1 were grown photoheterotrophically (10 W/m^2 incident light intensity) in SMM containing 0.4% succinate to a cell density of approximately 1.5 1.5×10^9 cells/ml. Prior to inoculation one flask was supplemented with 275 mg K2 TeO3 (equivalent to 138.3 mg Te^IV) to give a final medium concentration of […] K2 TeO3.\n850 mg of crude membrane-metal complex was isolated. After purification and extraction with acetone:methanol and ethanol, 203 mg of a finely-divided metallic material resulted. Analysis of a 50.4 mg sample of this material identified 23.2 mg of Te^o (a minimum net purity of 46%). The minimum Te^o deposited in the one-liter culture, therefore, was 93 mg (203 mg×0.46) or 0.7333 mmole. Since the growth medium initially contained 138.3 mg of Te^IV, a minimum Te^IV to Te^o conversion of 67% was obtained."}, "[2]": {"tested_on": "Rhodobacter sphaeroides 2.4.1", "assay_type": "cell-based"}, "[3]": {"tested_on": "Rhodocyclus gelatinosus str-1", "test": "Intrinsic HLR to TeO3^2- (MIC)", "assay_type": "cell-based"}, "[4]": {"tested_on": "Rhodospirillum rubrum Ha", "test": "Intrinsic HLR to TeO3^2- (MIC)", "assay_type": "cell-based"}, "[5]": {"tested_on": "Rhodobacter sphaeroides 2.4.7", "test": "Intrinsic HLR to TeO3^2- (MIC)", "assay_type": "cell-based"}, "[6]": {"tested_on": "R. sphaeroides 2.4.1", "test": "Hydrogen evolution from oxyanion reduction", "assay_type": "cell-based, Rhodobacter sphaeroides"}, "[7]": {"tested_on": "R. sphaeroides MM1004", "assay_type": "cell-based, Rhodobacter sphaeroides", "settings": "SMM succinate", "procedure": "All Proteobacteria were grown at 30° C. with the exception of E. coli which was cultured at 37° C. on a Gyrotary shaker. Cultures of R. sphaeroides and R. gelatinosus were grown in LB, YP, or SMM containing either 0.4% succinate, 0.4% malate, or 0.4% butyrate as a carbon source. Cultures of R. capsulatus were grown in RCVB minimal medium containing 0.4% malate as a carbon source; R. rubrum was grown in SMM containing 0.4% malate, and 0.1% yeast extract. R. palustris and R. viridis were grown in SMM containing 0.4% malate, 0.1% yeast extract, and 50 μg/ml each of p-aminobenzoic acid and cyanocobalamin. […] Anaerobic-dark growth of R. sphaeroides on SMM medium containing DMSO, and photoheterotrophic growth conditions have been previously reported.\nSeveral growth conditions were examined to determine requirements for tellurite reduction in vivo. Table 5 indicates the growth conditions tested.\n^a MIC were determined in SMM containing succinate at 30° C.\n^c Supplemented with 60 mM DMSO."}, "[8]": {"tested_on": "R. sphaeroides 2.4.1", "assay_type": "cell-based, Rhodobacter sphaeroides"}, "[9]": {"tested_on": "tellurite reductase activity, R. sphaeroides BC17", "test": "TeO3^2- -dependent FADH2 oxidation in subcellular fractions", "assay_type": "biochemical, Rhodobacter sphaeroides", "settings": "for FADH2 oxidation: 100 μg/ml K2 TeO3"}},
  "note": "Entries after “also recorded” stand apart in the source; their conditions may differ. Where two headings read alike, the source gives them in different places.",
  "data": [
    {"smiles": "O=[Te]([O-])[O-].[K+].[K+]", "note": "[K2 TeO3]", "values": [
      {"measurement": "Te^IV to Te^o conversion", "setting": "[1]; 250 μg/ml K2 TeO3, photoheterotrophic 10 W/m^2, minimum", "result": "≥ 67", "unit": "%"},
      {"measurement": "Localization of deposit after subcellular fractionation", "setting": "[1]; discontinuous sucrose gradient", "result": "localized to the cytoplasmic membrane"},
      {"measurement": "MIC Low-PO4^3- Medium", "setting": "[2]", "result": 600, "unit": "µg/mL"},
      {"measurement": "MIC Standard Medium", "setting": "[2]", "result": 600, "unit": "µg/mL"},
      {"measurement": "MIC ratio 10 W/m^2 vs 3 W/m^2", "setting": "[2]", "result": "at least two-fold"},
      {"measurement": "MIC ratio aerobically- vs. photosynthetically-grown", "setting": "[2]", "result": "two- to three-fold"},
      {"measurement": "MIC relative to E. coli", "setting": "[2]", "result": "at least 80 times"},
      {"measurement": "Reduction in TeO3^2- resistance with supplement", "setting": "[2]", "result": "thirty- to forty-fold"},
      {"measurement": "Relative toxicity", "setting": "[2]", "result": "SeO4^2- >TeO4^2- >TeO3^2- >SeO3^2- >Rh2 O3.5H2 O"},
      {"measurement": "Resistance in words", "setting": "[2]", "result": "intrinsic high level resistance"},
      {"measurement": "Resistance to tellurite in words", "setting": "[3]", "result": "low resistance"},
      {"measurement": "MIC K2 TeO3", "setting": "[3]; aerobic, minimal medium", "result": 5, "unit": "µg/mL"},
      {"measurement": "MIC K2 TeO3", "setting": "[3]; photosynthetic, 10 W/m^2", "result": 10, "unit": "µg/mL"},
      {"measurement": "Resistance to tellurite in words", "setting": "[4]", "result": "low resistance"},
      {"measurement": "MIC K2 TeO3", "setting": "[4]; aerobic, minimal medium", "result": 20, "unit": "µg/mL"},
      {"measurement": "MIC K2 TeO3", "setting": "[4]; photosynthetic, 10 W/m^2", "result": 10, "unit": "µg/mL"},
      {"measurement": "MIC K2 TeO3", "setting": "[5]; aerobic, minimal medium", "result": 800, "unit": "µg/mL"},
      {"measurement": "MIC K2 TeO3", "setting": "[5]; photosynthetic, 10 W/m^2", "result": 500, "unit": "µg/mL"},
      {"measurement": "Gas evolved", "setting": "[6]; 1 atm, 303° K., major component H2", "result": 8.37, "unit": "mmol"},
      {"measurement": "Water displaced from the gas collection vessel", "setting": "[6]; culture grown in presence of TeO3^2-", "result": 208, "unit": "mL"},
      {"measurement": "H2 evolved per mmole of Te^o deposited", "setting": "[6]; per mmole Te^o", "result": "approximately 11.5 mmoles"},
      {"measurement": "MIC K2 TeO3", "setting": "[7]; aerobic", "result": 800, "unit": "µg/mL"},
      {"measurement": "MIC K2 TeO3", "setting": "[7]; photosynthetic 10 W/m^2", "result": 550, "unit": "µg/mL"},
      {"measurement": "Appearance of cells / metal deposit", "setting": "[8]", "result": "intracellular accumulation of a dense metal deposit; also recorded: produced a black deposit which did not diffuse into the medium"},
      {"measurement": "Gas evolution", "setting": "[8]", "result": "+++ +"},
      {"measurement": "Gas evolution in words", "setting": "[8]", "result": "Copious gas evolution"},
      {"measurement": "FADH2 oxidation", "setting": "[9]; cytoplasm", "result": 20, "unit": "nmol/min/mg"},
      {"measurement": "TeO3^2- -dependent FADH2 oxidase activity in words", "setting": "[9]; in vitro", "result": "Neither BC17 nor PUHA1, two mutants which were previously shown to be tellurite sensitive under both aerobic and anaerobic-dark/DMSO growth conditions, expressed significant levels"},
      {"measurement": "FADH2 oxidation", "setting": "[9]; membrane", "result": 51, "unit": "nmol/min/mg"},
      {"measurement": "FADH2 oxidation", "setting": "[9]; periplasm", "result": 2, "unit": "nmol/min/mg"}
    ]}
  ]
}
